Measurements reported in patent US10898481B2 (priority 2018, dated 2021).

Legend:
hA2a/CHO = hA2a/CHO (Homo sapiens (Human), UniProt P29274); assay: cAMP inhibition assay in hA2a/CHO cells, 10 μM adenosine; assay type: cell-based; conditions: read-out: cAMP & FLIPR IC50 (nM) hA2a;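 further: compounds added to cells 30 min ahead of adenosine, then a further 30 min at 37 °C with adenosine before cAMP detection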
Procedure: (§1) hA2a/CHO, hA2b/CHO, hA3/CHO and mA2a/CHO (Genscript) were plated at 5×10^3 cells/well into 384-well polystyrene plates at the day of experiment. Compounds were pre-incubated with cells for 30 min at 37° C., 5% CO2. Then 10 μM adenosine was added to the cells and incubated for 30 min at 37° C., 5% CO2. Detection reagent (CISBIO) was added and the plates were incubated for 60 min at room temperature. The signal was captured by Envision.

hA2b/CHO = hA2b/CHO (Homo sapiens (Human), UniProt P29275); assay: cAMP inhibition assay in hA2b/CHO cells, 10 μM adenosine; assay type: cell-based; conditions: read-out: cAMP & FLIPR IC50 (nM) hA2b;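 further: cells exposed to compound 30 min at 37 °C, then stimulated with adenosine a further 30 min, cAMP read after 60 min at room temperature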
Procedure: as §1

mA2a/CHO = mA2a/CHO (Mus musculus (Mouse), UniProt Q60613); assay: cAMP inhibition assay in mA2a/CHO cells, 10 μM adenosine; assay type: cell-based; conditions: read-out: cAMP & FLIPR IC50 (nM) mA2a;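 further: compounds preincubated 30 min at 37 °C before the adenosine challenge, then 30 min further stimulation, readout after 60 min detection reagent incubation at room temperature in 384-well plates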
Procedure: as §1

[1] = molecular target: hADORA1/CHO (hA1 expressing) cells (Homo sapiens (Human), UniProt P30542); assay: cell-based; conditions: FLIPR inhibition, 10 μM adenosine, read-out: cAMP & FLIPR IC50 (nM) hA1
Sequence of hADORA1/CHO (hA1 expressing) cells (P30542 whole entry): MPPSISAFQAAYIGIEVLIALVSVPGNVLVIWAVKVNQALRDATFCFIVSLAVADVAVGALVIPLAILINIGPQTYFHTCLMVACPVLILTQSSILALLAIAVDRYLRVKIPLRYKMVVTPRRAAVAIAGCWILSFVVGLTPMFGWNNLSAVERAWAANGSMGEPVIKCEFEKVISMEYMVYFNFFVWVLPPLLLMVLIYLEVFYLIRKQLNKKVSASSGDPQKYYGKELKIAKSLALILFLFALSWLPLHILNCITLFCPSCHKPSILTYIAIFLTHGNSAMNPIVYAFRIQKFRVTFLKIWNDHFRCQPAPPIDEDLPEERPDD

Sequence of hA2a/CHO (P29274 whole entry): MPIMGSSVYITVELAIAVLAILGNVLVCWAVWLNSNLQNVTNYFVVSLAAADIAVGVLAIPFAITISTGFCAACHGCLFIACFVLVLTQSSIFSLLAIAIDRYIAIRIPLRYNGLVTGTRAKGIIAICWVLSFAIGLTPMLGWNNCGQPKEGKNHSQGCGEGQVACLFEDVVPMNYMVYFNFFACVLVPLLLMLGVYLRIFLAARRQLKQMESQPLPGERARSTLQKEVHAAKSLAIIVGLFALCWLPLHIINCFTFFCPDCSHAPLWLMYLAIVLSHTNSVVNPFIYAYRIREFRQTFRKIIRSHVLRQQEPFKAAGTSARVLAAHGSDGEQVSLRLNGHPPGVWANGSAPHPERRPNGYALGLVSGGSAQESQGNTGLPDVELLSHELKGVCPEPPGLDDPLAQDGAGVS
Sequence of hA2b/CHO (P29275 whole entry): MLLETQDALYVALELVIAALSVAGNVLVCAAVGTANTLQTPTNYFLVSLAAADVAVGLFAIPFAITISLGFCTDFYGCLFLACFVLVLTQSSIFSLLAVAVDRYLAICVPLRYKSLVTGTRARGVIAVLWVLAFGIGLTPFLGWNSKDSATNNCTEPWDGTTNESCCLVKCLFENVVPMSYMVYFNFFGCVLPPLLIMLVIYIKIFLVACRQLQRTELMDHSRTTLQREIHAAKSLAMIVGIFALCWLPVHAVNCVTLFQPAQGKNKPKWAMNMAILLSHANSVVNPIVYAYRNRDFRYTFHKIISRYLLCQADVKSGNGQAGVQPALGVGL
Sequence of mA2a/CHO (Q60613 whole entry): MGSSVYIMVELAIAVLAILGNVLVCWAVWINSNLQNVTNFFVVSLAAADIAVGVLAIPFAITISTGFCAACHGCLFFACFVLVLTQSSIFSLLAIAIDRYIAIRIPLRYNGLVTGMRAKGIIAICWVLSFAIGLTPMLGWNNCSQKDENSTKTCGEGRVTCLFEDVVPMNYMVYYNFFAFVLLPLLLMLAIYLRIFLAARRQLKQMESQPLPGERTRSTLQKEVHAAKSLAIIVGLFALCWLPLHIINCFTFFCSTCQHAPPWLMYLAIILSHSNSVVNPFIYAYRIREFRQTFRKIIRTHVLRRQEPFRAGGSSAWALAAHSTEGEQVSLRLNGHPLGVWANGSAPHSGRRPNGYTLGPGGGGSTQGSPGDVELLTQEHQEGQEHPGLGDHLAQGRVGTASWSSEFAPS

## Cc1cnc2ccc(-c3nc(C(=O)NC[C@H]4CCN(C(=O)C5CC5)C4)c(N)nc3-c3ncco3)cn12 [Cmpd. 219, 3-amino-N-[[(3R)-1-cyclopropanecarbonylpyrrolidin-3-yl]methyl]-6-[3-methylimidazo[1,2-a]pyridin-6-yl]-5-(1,3-oxazol-2-yl)pyrazine-2-carboxamide]
hA2a/CHO
  IC50: 4.9 nM
hA2b/CHO
  IC50: 2300 nM
mA2a/CHO
  IC50: 220 nM
[1]
  IC50: > 10000 nM

## CO[C@H]1C[C@@H](NC(=O)c2nc(-c3ccc4ncc(C)n4c3)c(-c3ncco3)nc2N)C1 [Example 152, 3-amino-N-((1s,3s)-3-methoxycyclobutyl)-6-(3-methylimidazo [1,2-a]pyridin-6-yl)-5-(oxazol-2-yl)pyrazine-2-carboxamide]
hA2a/CHO
  IC50: 5.1 nM
hA2b/CHO
  IC50: 369 nM
mA2a/CHO
  IC50: 43 nM
[1]
  IC50: 10000 nM

## Cc1cnc2ccc(-c3nc(C(=O)NCCC(=O)N(C)C)c(N)nc3-c3ncco3)cn12 [Example 143, 3-amino-N-(3-(dimethylamino)-3-oxopropyl)-6-(3-methylimidazo[1,2-a]pyridin-6-yl)-5-(oxazol-2-yl)pyrazine-2-carboxamide]
hA2a/CHO
  IC50: 1.7 nM
hA2b/CHO
  IC50: 162 nM
mA2a/CHO
  IC50: 12 nM
[1]
  IC50: 180 nM

## Cc1cc(-c2nc(CNC(=O)c3ccccn3)c(N)nc2-c2ccc(F)cc2)cc(C)n1 [Example 8, N-[[3-amino-6-(2,6-dimethylpyridin-4-yl)-5-(4-fluorophenyl)pyrazin-2-yl]methyl]pyridine-2-carboxamide]
hA2a/CHO
  IC50: 116 nM
hA2b/CHO
  IC50: ≥ 10000 nM
mA2a/CHO
  IC50: 390 nM
[1]
  IC50: 3400 nM

## Cc1nc(CNC(=O)c2nc(-c3ccc4nccn4c3)c(-c3ncco3)nc2N)cs1 [Example 44, 3-amino-6-(imidazo[1,2-a]pyridin-6-yl)-N-((2-methylthiazol-4-yl)methyl)-5-(oxazol-2-yl)pyrazine-2-carboxamide]
hA2a/CHO
  IC50: 131 nM
hA2b/CHO
  IC50: 2110 nM
mA2a/CHO
  IC50: 786 nM
[1]
  IC50: 10000 nM

## Cc1cccc(CNC(=O)c2nc(-c3ccc(=O)n(C)c3)c(-c3ncco3)nc2N)n1 [Example 18, 3-amino-6-(1-methyl-6-oxo-1,6-dihydropyridin-3-yl)-N-[(6-methylpyridin-2-yl)methyl]-5-(1,3-oxazol-2-yl)pyrazine-2-carboxamide]
hA2a/CHO
  IC50: 105 nM
hA2b/CHO
  IC50: ≥ 10000 nM
mA2a/CHO
  IC50: 116 nM
[1]
  IC50: 1150 nM

## Nc1nc(-c2ncco2)c(-c2ccc(=O)n(CCCO)c2)nc1C(=O)NCc1c(F)cccc1F [Example 102, 3-amino-N-[(2,6-difluorophenyl)methyl]-6-[1-(3-hydroxypropyl)-6-oxo-1,6-dihydropyridin-3-yl]-5-(1,3-oxazol-2-yl)pyrazine-2-carboxamide]
hA2a/CHO
  IC50: 9.9 nM
hA2b/CHO
  IC50: 120 nM
mA2a/CHO
  IC50: 48 nM
[1]
  IC50: 78 nM

## Cc1cnc2ccc(-c3nc(C(=O)NCC4CN(C)CCO4)c(N)nc3-c3ccc(F)cc3)cn12 (single isomer, unassigned; isomer 2) [Example 250, 3-amino-5-(4-fluorophenyl)-6-(3-methylimidazo[1,2-a]pyridin-6-yl)-N-((4-methylmorpholin-2-yl)methyl) pyrazine-2-carboxamide (isomer 2)]
hA2a/CHO
  IC50: 5 nM
hA2b/CHO
  IC50: 212 nM
mA2a/CHO
  IC50: 31 nM
[1]
  IC50: 36 nM

## Cc1cnc2ccc(-c3nc(C(=O)NCc4cccc(N5CC6(CCN6C)C5)n4)c(N)nc3-c3ncco3)cn12 [Example 171, 3-amino-N-[(6-[1-methyl-1,6-diazaspiro[3.3]heptan-6-yl]pyridin-2-yl)methyl]-6-[3-methylimidazo[1,2-a]pyridin-6-yl]-5-(1,3-oxazol-2-yl)pyrazine-2-carboxamide]
hA2a/CHO
  IC50: 1 nM
hA2b/CHO
  IC50: 228 nM
mA2a/CHO
  IC50: 15 nM
[1]
  IC50: 589 nM

## Cc1cnc2ccc(-c3nc(C(=O)NC[C@H]4CCCN4)c(N)nc3-c3ncco3)cn12 [Example 122, (R)-3-amino-6-(3-methylimidazo[1,2-a]pyridin-6-yl)-5-(oxazol-2-yl)-N-(pyrrolidin-2-ylmethyl)pyrazine-2-carboxamide]
hA2a/CHO
  IC50: 34 nM
hA2b/CHO
  IC50: 887 nM
mA2a/CHO
  IC50: 126 nM
[1]
  IC50: 10000 nM

## CCc1ccccc1CNC(=O)c1nc(-c2cc(C)nc(C)c2)c(-c2ccc(F)cc2)nc1N [Example 84, 3-amino-6-(2,6-dimethylpyridin-4-yl)-N-(2-ethylbenzyl)-5-(4-fluorophenyl) pyrazine-2-carboxamide]
hA2a/CHO
  IC50: 18 nM
hA2b/CHO
  IC50: ≥ 10000 nM
mA2a/CHO
  IC50: 238 nM
[1]
  IC50: 1200 nM

## CNC(=O)CCNC(=O)c1nc(-c2ccc3ncc(C)n3c2)c(-c2ncco2)nc1N [Example 225, 3-amino-N-(3-(methylamino)-3-oxopropyl)-6-(3-methylimidazo[1,2-a]pyridin-6-yl)-5-(oxazol-2-yl)pyrazine-2-carboxamide]
hA2a/CHO
  IC50: 32 nM
hA2b/CHO
  IC50: 254 nM
mA2a/CHO
  IC50: 177 nM
[1]
  IC50: > 10000 nM

## Cn1cc(-c2nc(C(=O)NCc3c(F)cccc3P(C)(C)=O)c(N)nc2-c2ncco2)ccc1=O [Example 97, 3-amino-N-(2-(dimethylphosphoryl)-6-fluorobenzyl)-6-(1-methyl-6-oxo-1,6-dihydropyridin-3-yl)-5-(oxazol-2-yl) pyrazine-2-carboxamide]
hA2a/CHO
  IC50: 50 nM
hA2b/CHO
  IC50: 4880 nM
mA2a/CHO
  IC50: 40 nM
[1]
  IC50: 482 nM

## Cn1cnc2ccc(-c3nc(C(=O)NCc4ncccc4NCCO)c(N)nc3-c3ccc(F)cc3)cc21 [Example 117, 3-amino-5-(4-fluorophenyl)-N-([3-[(2-hydroxyethyl)amino]pyridin-2-yl]methyl)-6-(1-methyl-1H-1,3-benzodiazol-6-yl)pyrazine-2-carboxamide]
hA2a/CHO
  IC50: 0.7 nM
hA2b/CHO
  IC50: 146 nM
mA2a/CHO
  IC50: 2.6 nM
[1]
  IC50: 64 nM

## Cc1cnc2ccc(-c3nc(C(=O)NCC4CCCCO4)c(N)nc3-c3ncco3)cn12 (single isomer, unassigned; isomer 1) [Example 165, 3-amino-6-(3-methylimidazo[1,2-a]pyridin-6-yl)-5-(oxazol-2-yl)-N-((tetrahydro-2H-pyran-2-yl)methyl) pyrazine-2-carboxamide (isomer 1)]
hA2a/CHO
  IC50: 0.24 nM
hA2b/CHO
  IC50: 73 nM
mA2a/CHO
  IC50: 1.42 nM
[1]
  IC50: 207 nM

## Cc1cc(-c2nc(C(=O)NCc3ccccc3C(F)F)c(N)nc2-c2ccc(F)cc2)cc(C)n1 [Example 55, 3-amino-N-(2-(difluoromethyl)benzyl)-6-(2,6-dimethylpyridin-4-yl)-5-(4-fluorophenyl)pyrazine-2-carboxamide]
hA2a/CHO
  IC50: 133 nM
hA2b/CHO
  IC50: 4440 nM
mA2a/CHO
  IC50: 1590 nM
[1]
  IC50: 413 nM

## Cc1cnc2ccc(-c3nc(C(=O)NCc4cccc(N5CC(N(C)C)C5)n4)c(N)nc3-c3ncco3)cn12 [Example 111, 3-amino-N-((6-(3-(dimethylamino)azetidin-1-yl)pyridin-2-yl)methyl)-6-(3-methylimidazo[1,2-a]pyridin-6-yl)-5-(oxazol-2-yl)pyrazine-2-carboxamide]
hA2a/CHO
  IC50: 0.5 nM
hA2b/CHO
  IC50: 81 nM
mA2a/CHO
  IC50: 6.5 nM
[1]
  IC50: 2810 nM

## COCCNC(=O)c1nc(-c2ccc3ncc(C)n3c2)c(-n2nccn2)nc1N [Example 243, 3-amino-N-(2-methoxyethyl)-6-(3-methylimidazo[1,2-a]pyridin-6-yl)-5-(2H-1,2,3-triazol-2-yl)pyrazine-2-carboxamide]
hA2a/CHO
  IC50: 7.6 nM
hA2b/CHO
  IC50: 181 nM
mA2a/CHO
  IC50: 30 nM
[1]
  IC50: 92 nM
